Source: patent US9656994B2, “Substituted benzimidazoles as nociceptin receptor modulators” (The Scripps Research Institute, priority 2013, dated 2017)
pEC50, pIC50: −log10 of the molar value. Read-outs that look alike come from different tables or passages of the source.

Experiments:
NOP [1] = target: T1, NOP (Homo sapiens, UniProt P41146); test: cAMP biosensor assay, NOP agonist mode; format: cell-based
NOP [2] = target: T1, NOP; test: cAMP biosensor assay, NOP antagonist mode; format: cell-based
MOP [3] = target: T2, MOP (Homo sapiens, UniProt P35372); test: cAMP biosensor assay, MOP agonist mode; format: cell-based
MOP [4] = target: T2, MOP; test: cAMP biosensor assay, MOP antagonist mode; format: cell-based
[5] = blood-brain barrier penetration; conditions: in vivo
[6] = tested on: selected cytochrome P450 enzymes; test: affinity for selected cytochrome P450 enzymes
[7] = HEK293-CNG cells expressing NOP, agonist mode, 11 point concentration-response, read-out: NOP Agonist EC50
[8] = HEK293-CNG cells expressing NOP, antagonist mode with 5 nM nociceptin, read-out: NOP Antagonist IC50

T1 sequence (P41146 whole entry): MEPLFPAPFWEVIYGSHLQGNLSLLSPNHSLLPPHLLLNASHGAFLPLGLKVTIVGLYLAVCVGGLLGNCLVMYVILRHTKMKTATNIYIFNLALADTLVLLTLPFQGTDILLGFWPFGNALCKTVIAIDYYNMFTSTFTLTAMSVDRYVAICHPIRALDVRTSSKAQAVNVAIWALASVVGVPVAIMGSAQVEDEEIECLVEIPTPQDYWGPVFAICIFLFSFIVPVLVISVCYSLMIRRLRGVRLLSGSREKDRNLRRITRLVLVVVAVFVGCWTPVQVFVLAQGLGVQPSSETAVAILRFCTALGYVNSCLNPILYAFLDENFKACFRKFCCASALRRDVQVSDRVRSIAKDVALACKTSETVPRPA
T2 sequence (P35372 whole entry): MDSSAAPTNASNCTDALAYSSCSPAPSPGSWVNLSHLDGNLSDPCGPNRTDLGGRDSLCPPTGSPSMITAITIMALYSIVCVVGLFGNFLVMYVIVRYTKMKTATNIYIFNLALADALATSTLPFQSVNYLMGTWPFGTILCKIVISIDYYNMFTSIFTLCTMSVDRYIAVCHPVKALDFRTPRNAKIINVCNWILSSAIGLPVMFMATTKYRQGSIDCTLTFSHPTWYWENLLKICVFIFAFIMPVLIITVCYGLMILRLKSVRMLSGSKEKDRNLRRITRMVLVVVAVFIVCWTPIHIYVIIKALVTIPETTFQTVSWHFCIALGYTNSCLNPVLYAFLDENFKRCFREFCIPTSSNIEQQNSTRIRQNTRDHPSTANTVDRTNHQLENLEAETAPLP

| Structure (SMILES) | pEC50 (NOP [1]; [7]) | pIC50 (NOP [2]; [8]) | pEC50 (MOP [3]) | pIC50 (MOP [4]) | pEC50 (NOP [1]) | pIC50 (NOP [2]) | blood-brain barrier penetration [5] | affinity for selected cytochrome P450 enzymes [6] |
| --- | --- | --- | --- | --- | --- | --- | --- | --- |
| Fc1ccc2c(c1)nc([C@@H]1CCCNC1)n2C1CCN(CC2CCCCCCC2)CC1 [Cpd 30] | 6.82 | 5.41 | 6.64 | 5.52 | – | – | – | – |
| O[C@H]1CN[C@H](c2nc3ccccc3n2C2CCN(CC3CCCCCCC3)CC2)C1 [Cpd 18] | – | – | 6.24 | – | 5.85 | 5.11 | – | – |
| c1ccc2c(c1)nc(C1CCNCC1)n2C1CCN(CC2CCCCCCC2)CC1 [Cpd 10] | 5.46 | < 5.00 | 6.40 | < 5.00 | – | – | – | – |
| c1ccc2c(c1)nc([C@@H]1CCNC1)n2C1CCN(CC2CCCCCCC2)CC1 [Cpd 11] | – | – | – | – | – | – | 44% | low affinity |
| CC1=C(CN2CCC(n3c(C4CNC4)nc4cc(F)ccc43)CC2)C(C)(C)CCC1 [Cpd 53] | 6.68 | < 5.00 | – | < 5.00 | – | – | – | – |
| CS(=O)(=O)c1ccc2c(c1)nc([C@@H]1CCNC1)n2C1CCN(CC2CCCCCCC2)CC1 [Cpd 44] | 5.48 | < 5.00 | – | < 5.00 | – | – | – | – |
| C1=CC2CC1CC2CN1CCC(n2c(C3CNC3)nc3ccccc32)CC1 (stereo not shown) [Cpd 47] | 6.51 | < 5.00 | 6.52 | < 5.00 | – | – | – | – |
| c1ccc2c(c1)nc(C1CNC1)n2C1CCN(CC2CCCCC2)CC1 [Cpd 55] | 6.85 | < 5.00 | – | < 5.00 | – | – | – | – |
| Cc1ccc2c(c1)nc([C@@H]1CCNC1)n2C1CCN(CC2CCCCCCC2)CC1 [Cpd 41] | 5.20 | < 5.00 | 5.23 | < 4.00 | – | – | – | – |
| c1ccc(CN2CCC(n3c([C@@H]4CCNC4)nc4ccccc43)CC2)cc1 [Cpd 59] | 6.43 | < 5.00 | 6.57 | < 5.00 | – | – | – | – |
| CC1(C)[C@H]2CC=C(CN3CCC(n4c([C@@H]5CCCNC5)nc5ccccc54)CC3)[C@@H]1C2 [Cpd 58] | 5.80 | < 5.00 | – | < 5.00 | – | – | – | – |
